{"source": "paper PMC3660367", "about": "“MARCKS Protein Is Phosphorylated and Regulates Calcium Mobilization during Human Acrosomal Exocytosis” (PLoS ONE, 2013)", "system": "acrosomal exocytosis in non-permeabilized human sperm", "assay": "Acrosomal exocytosis assay in non-permeabilized (living) human sperm", "type": "cell-based", "method": "Acrosomal exocytosis assays were performed as previously described. Briefly, human semen obtained from normal healthy donors was allowed to liquefy for 30-60 min at 37°C. We used a swim-up protocol to isolate highly motile sperm under capacitating conditions in Human Tubal Fluid media (HTF, as formulated by Irvine Scientific, Santa Ana, CA) supplemented with 0.5% bovine serum albumin (BSA) for 1 h at 37°C in an atmosphere of 5% CO2/95% air. Sperm concentrations were adjusted to 5–10×10^6 cells/ml and incubated for at least 2 h under capacitating conditions. We have shown previously that human sperm incubated under these conditions are responsive to progesterone. […] Acrosomal status was evaluated by staining with FITC-coupled Pisum sativum agglutinin (FITC-PSA) according to [21]. At least 200 cells were scored using a Nikon Optiphot II microscope equipped with epifluorescence optics. […] For each experiment, acrosomal exocytosis indexes were calculated by subtracting the number of reacted spermatozoa in the negative control (range 10%–30%) from all values, and expressing the resulting values as a percentage of the acrosome exocytosis observed in the positive control (range 25%–40%). […] Data were evaluated using one-way ANOVA and post hoc tests (Dunnett's test or confident intervals). […]", "note": "No end group written: not given here.", "data": [{"sequence": "KKRFSFKKSFKL (also: tetramethylrhodamine conjugate, site not given here) [ED-TMR, commercial (Anaspec) tetramethylrhodamine-conjugated peptide … from residues 154–165 of human MARCKS ED]", "values": [{"measurement": "effect on acrosomal exocytosis stimulated by A23187, PMA and progesterone", "setting": "non-permeabilized capacitated sperm, peptide 30 min 37°C, then 10 µM A23187, 200 nM PMA or 15 µM progesterone 15 min", "value": "inhibited the secretion"}, {"measurement": "acrosomal exocytosis index at high concentrations versus unstimulated controls (basal exocytosis)", "setting": "non-permeabilized sperm, high concentrations", "value": "significantly lower than the index in unstimulated controls"}]}]}
